Key:
RR/PTCL = RR/PTCL historical benchmark, cited from earlier work
MC38 tumors [1] = test: model of PD-1 antibody failure or stable disease, second-line therapy; format: in vivo; conditions: second-line therapy in mice failing PD-1 Ab therapy, n=10/group, end of study
Description: To establish a model of PD-1 antibody failure or stable disease, 150 mice were initially treated biweekly for 3 weeks with first-line anti-PD-1 Ab (5 mg/kg, intraperitoneal administration).
Human cancer patients receiving ICI therapy often experience a transient response or stable disease, but eventually develop resistance and progress, a challenge to which major efforts are directed. […] To explore the effect of HBI-8000 plus ICI on acquired resistance, we developed a model based on the repeated observations that tumor-bearing mice treated initially (first-line) with single agent PD-1 Ab or PD-L1 Ab display […] patterns of growth: approximately 20% experience rapid progression, approximately 20% experience complete regression, and approximately 60% experience stable tumor growth (defined as 3 consecutive tumor volume measurements with no significant change) or slow progression (relative to rapid growth and progression), which somewhat approximates the clinical situation. Using the above model, we treated a large cohort of tumor-bearing mice with PD-1 Ab alone. Once they reached the criteria for stable disease or slow progression, they were randomized into 6 treatment arms as indicated in FIG. 13. We compared the effect of halting treatment (Vehicle), continuing to treat with PD-1 Ab, or continuing PD-1 Ab in combination with HBI-8000. […]

MC38 tumors [2] = test: NanoString nCounter PanCancer Immune Profiling Panel gene expression; format: in vivo, C57BL/6 mice
Description: Gene expression studies were carried out using excised MC38 tumors (n=20 animals/treatment) isolated from syngeneic C57BL/6 mice treated for 7, 14, or 17 days with HBI-8000 (50 mg/kg, daily), anti-PD-1 (10 mg/kg, biweekly), or the combination of HBI-8000+anti-PD-1 (50 mg/kg, daily, 10 mg/kg, biweekly). At study termination, tumor samples from the treated mice were collected and fixed in formalin for 24 h and transferred to EtOH, followed by the preparation of formalin-fixed paraffin embedded blocks. Tumor sections (5-10 μm) were prepared from the formalin-fixed paraffin-embedded blocks, and total RNA was isolated from tissue scraped from 4 to 6 slides using the protocol recommended by NanoString Technologies (Seattle, Wash.). The nCounter PanCancer Immune Profiling panel developed and provided by NanoString Technologies was initially selected for expression analyses with an additional 20 genes added as a Panel Plus Codeset. The additional genes were predicted to be regulated by HBI-8000+/−ICI treatment. The nCounter assays were performed according to the manufacturer's instructions using the nCounter FLEX system.
Gene expression data were analyzed using nSolver software provided by NanoString Technologies, Inc. Raw data were normalized to the geometric mean values of the internal synthetic positive controls and geometric means of the housekeeping genes, as recommended by the manufacturer. The NanoString Technologies' nSolver Analysis Software 4.0 generated cell type scores, pathway scores, heatmaps, and individual gene normalized data from the nCounter PanCancer Immune Profiling Panel Plus dataset. The cell type score quantifies cell populations using marker genes for given cell types; by centering the mean at 0 for each cell type, immune cell type abundance can be compared on the same scale. The same method was used to generate immune-relevant pathway scores; summarizing the data from multiple genes in a pathway into a single score allowed for comparison between treatments for pathway analysis.
Normalized gene expression data for individual genes was exported from nSolver, annotated with percent of tumor growth inhibition (% TGI), and then imported into GraphPad Prism 7.04.
To investigate the mechanism of action of HBI-8000 in combination therapy with ICIs, larger groups of mice (n=20/group) were implanted with MC38 tumors to sufficiently power the statistical analysis. A baseline no-treatment tumor-bearing group was killed 1 day before initiating treatment. Mice in each treatment arm (n=20) were killed at days 7, 14, and 17 post treatment initiation. The NanoString nCounter PanCancer Immune Profiling Panel analysis allows for clustering of immune response-related genes into “gene sets” comprising a collection of genes selected as being representative of an element of the immune response (i.e., cell type, pathway), and provides a high level view of the antitumor response, which is depicted as scatterplots in FIG. 9A. While all the scores were elevated in the PD-1 Ab plus HBI-8000 combination agent cohorts, it is noteworthy that a subset of cell type scores was augmented by either PD-1 Ab or HBI-8000 alone as early as day 7.

[3] = tolerability, treatment related adverse events (Example 4); format: in vivo, human
Description: The tolerability of the compounds of formula I, nivolumab, and a combination of the compounds of formula I and nivolumab were tested. The Phase 2 clinical dosage of 30 mg BIW of the compounds of formula I was administered.

RR/ATL = conditions: cited from earlier work; for ORR: RR/ATL historical benchmark

Nc1cc(F)ccc1NC(=O)c1ccc(CNC(=O)/C=C/c2cccnc2)cc1 [Epidaza (China)]
ORR (PMS) (RR/PTCL; value in brackets (PMS)): 35% | ORR (RR/PTCL): 28%

O=c1[nH]cnc2c([C@@H]3N[C@H](CO)[C@@H](O)[C@H]3O)c[nH]c12 [Forodesine]
ORR (RR/PTCL): 22%

Nc1cc(F)ccc1NC(=O)c1ccc(CNC(=O)/C=C/c2cccnc2)cc1 [HBI-8000, N-(2-amino-4-fluorophenyl)-4-[[[(2E)-1-oxo-3-(3-pyridinyl)-2-propen-1-yl]amino]methyl]benzamide]
complete response (tumor regression) (MC38 tumors [1]): 2 mice | partial response (MC38 tumors [1]): 3 mice | cell type scores corresponding to dendritic cells, macrophages, NK cells, cytotoxic cells, and CD45 cells (MC38 tumors [2]; as early as day 7): augmented | directed global significance score, Adaptive (MC38 tumors [2]; day 17, vs. Control): 2 | directed global significance score, Adhesion (MC38 tumors [2]; day 17, vs. Control): 2 | directed global significance score, Antigen processing (MC38 tumors [2]; day 17, vs. Control): 1.8 | directed global significance score, Apoptosis (MC38 tumors [2]; day 17, vs. Control): 1.8 | directed global significance score, B cell Functions (MC38 tumors [2]; day 17, vs. Control): 1.5 | directed global significance score, Basic Cell Function (MC38 tumors [2]; day 17, vs. Control): 1.5 | directed global significance score, CD molecules (MC38 tumors [2]; day 17, vs. Control): 1.7 | directed global significance score, Cancer progression (MC38 tumors [2]; day 17, vs. Control): 1.8 | directed global significance score, Cell cycle (MC38 tumors [2]; day 17, vs. Control): 1.5 | directed global significance score, Chemokine and Receptors (MC38 tumors [2]; day 17, vs. Control): 1.5 | directed global significance score, Class I MHC mediated antigen process (MC38 tumors [2]; day 17, vs. Control): 1.5 | directed global significance score, Complement pathway (MC38 tumors [2]; day 17, vs. Control): 0 | directed global significance score, Costimulation by the CD28 family (MC38 tumors [2]; day 17, vs. Control): 1 | directed global significance score, Cytokines and Receptors (MC38 tumors [2]; day 17, vs. Control): 1.8 | directed global significance score, Dendritic cell Functions (MC38 tumors [2]; day 17, vs. Control): 1.8 | directed global significance score, Humoral (MC38 tumors [2]; day 17, vs. Control): 1.8 | directed global significance score, Inflammation (MC38 tumors [2]; day 17, vs. Control): 1.8 | directed global significance score, Innate (MC38 tumors [2]; day 17, vs. Control): 1.8 | directed global significance score, Interferon (MC38 tumors [2]; day 17, vs. Control): 1.5 | directed global significance score, Interleukin (MC38 tumors [2]; day 17, vs. Control): 1.5 | directed global significance score, Leukocyte Function (MC38 tumors [2]; day 17, vs. Control): 1.8 | directed global significance score, MHC (MC38 tumors [2]; day 17, vs. Control): 1.8 | directed global significance score, MHC class II antigen presentation (MC38 tumors [2]; day 17, vs. Control): 1.8 | directed global significance score, Macrophage function (MC38 tumors [2]; day 17, vs. Control): 1.8 | directed global significance score, Microglial Functions (MC38 tumors [2]; day 17, vs. Control): 3 | directed global significance score, NK cell Function (MC38 tumors [2]; day 17, vs. Control): 1.5 | directed global significance score, Pathogen Receptors (MC38 tumors [2]; day 17, vs. Control): 1.3 | directed global significance score, Senescence (MC38 tumors [2]; day 17, vs. Control): 1.3 | directed global significance score, T-cell Functions (MC38 tumors [2]; day 17, vs. Control): 1.5 | directed global significance score, TLR (MC38 tumors [2]; day 17, vs. Control): 1.5 | directed global significance score, TNF superfamily (MC38 tumors [2]; day 17, vs. Control): 1.5 | directed global significance score, Transporter Function (MC38 tumors [2]; day 17, vs. Control): 1.8 | share of TRAEs associated with the agent ([3]; 63 subjects with AE data): 39% | Anemia, TRAE ([3]; G1-2): 14 (22) n (% of N) | Diarrhea, TRAE ([3]; G1-2): 0 n (% of N) | Fatigue, TRAE ([3]; G1-2): 0 n (% of N) | Hypophospatemia, TRAE ([3]; G1-2): 6 (10) n (% of N) | Lymphocyte decrease, TRAE ([3]; G1-2): 0 n (% of N) | Neutrophil decrease, TRAE ([3]; G1-2): 8 (13) n (% of N) | Platelet decrease, TRAE ([3]; G1-2): 23 (37) n (% of N) | WBC decrease, TRAE ([3]; G1-2): 11 (17) n (% of N) | Anemia, TRAE ([3]; G3): 1 (2) n (% of N) | Diarrhea, TRAE ([3]; G3): 0 n (% of N) | Fatigue, TRAE ([3]; G3): 0 n (% of N) | Hypophospatemia, TRAE ([3]; G3): 4 (6) n (% of N) | Lymphocyte decrease, TRAE ([3]; G3): 0 n (% of N) | Neutrophil decrease, TRAE ([3]; G3): 5 (8) n (% of N) | Platelet decrease, TRAE ([3]; G3): 3 (5) n (% of N) | WBC decrease, TRAE ([3]; G3): 1 (2) n (% of N) | Anemia, TRAE ([3]; G4): 0 n (% of N) | Diarrhea, TRAE ([3]; G4): 0 n (% of N) | Fatigue, TRAE ([3]; G4): 0 n (% of N) | Hypophospatemia, TRAE ([3]; G4): 0 n (% of N) | Lymphocyte decrease, TRAE ([3]; G4): 0 n (% of N) | Neutrophil decrease, TRAE ([3]; G4): 1 (2) n (% of N) | Platelet decrease, TRAE ([3]; G4): 0 n (% of N) | WBC decrease, TRAE ([3]; G4): 0 n (% of N)

Nc1cccc2c1CN(C1CCC(=O)NC1=O)C2=O (centres unmarked) [Lenalidomide]
ORR (RR/ATL): 42% | ORR in moga patients (RR/ATL; RR/ATL patients who had received mogamulizumab): 18%

C#CCC(Cc1cnc2nc(N)nc(N)c2n1)c1ccc(C(=O)N[C@@H](CCC(=O)O)C(=O)O)cc1 (some centres unmarked) [Pralatrexate]
ORR (RR/PTCL): 45%

NIVO: fully human monoclonal antibody directed against PD-1
Anemia, TRAE ([3]; G1-2): 0 n (% of N) | Diarrhea, TRAE ([3]; G1-2): 4 (6) n (% of N) | Fatigue, TRAE ([3]; G1-2): 0 n (% of N) | Hypophospatemia, TRAE ([3]; G1-2): 0 n (% of N) | Lymphocyte decrease, TRAE ([3]; G1-2): 0 n (% of N) | Neutrophil decrease, TRAE ([3]; G1-2): 0 n (% of N) | Platelet decrease, TRAE ([3]; G1-2): 0 n (% of N) | WBC decrease, TRAE ([3]; G1-2): 0 n (% of N) | Anemia, TRAE ([3]; G3): 0 n (% of N) | Diarrhea, TRAE ([3]; G3): 1 (2) n (% of N) | Fatigue, TRAE ([3]; G3): 0 n (% of N) | Hypophospatemia, TRAE ([3]; G3): 0 n (% of N) | Lymphocyte decrease, TRAE ([3]; G3): 0 n (% of N) | Neutrophil decrease, TRAE ([3]; G3): 0 n (% of N) | Platelet decrease, TRAE ([3]; G3): 0 n (% of N) | WBC decrease, TRAE ([3]; G3): 0 n (% of N) | Anemia, TRAE ([3]; G4): 0 n (% of N) | Diarrhea, TRAE ([3]; G4): 0 n (% of N) | Fatigue, TRAE ([3]; G4): 0 n (% of N) | Hypophospatemia, TRAE ([3]; G4): 0 n (% of N) | Lymphocyte decrease, TRAE ([3]; G4): 0 n (% of N) | Neutrophil decrease, TRAE ([3]; G4): 0 n (% of N) | Platelet decrease, TRAE ([3]; G4): 0 n (% of N) | WBC decrease, TRAE ([3]; G4): 0 n (% of N) | TSH increase, TRAE ([3]; less frequent TRAEs): 5 n | amylase increase, TRAE ([3]; less frequent TRAEs): 4 n | lipase increase, TRAE ([3]; less frequent TRAEs): 6 n | rash, TRAE ([3]; less frequent TRAEs): 10 n

B1: Mogamulizumab: RR/ATL treatment listed as historical benchmark (antibody, chains of the INN, looked up, V domains shown)
VH: EVQLVESGGDLVQPGRSLRLSCAASGFIFSNYGMSWVRQAPGKGLEWVATISSASTYSYYPDSVKGRFTISRDNAKNSLYLQMNSLRVEDTALYYCGRHSDGNFAFGYWGQGTLVTVSS
VL: DVLMTQSPLSLPVTPGEPASISCRSSRNIVHINGDTYLEWYLQKPGQSPQLLIYKVSNRFSGVPDRFSGSGSGTDFTLKISRVEAEDVGVYYCFQGSLLPWTFGQGTKVEIK
ORR (RR/ATL): 50%

From patent US20220110924A1, “METHODS AND COMPOSITIONS FOR GENETIC MODULATION OF TUMOR MICROENVIRONMENTS” (HUYABIO International, LLC, priority 2020, published 2022)
